Source: PMC12856912, “Structure-Guided Semisynthesis of Blasticidin S–Amicetin Chimeras as Selective Ribosome Inhibitors” (Journal of the American Chemical Society, 2026)
Values after ≈ are worked out from the molar mass of the structure shown. Read-outs that look alike come from different tables or passages of the source.

Experiments:
[1] = tested on: MRSA ATCC 43300; experiment: Antibacterial MIC assay, serial dilution; assay type: cell-based, Staphylococcus aureus; settings: for Selectivity index (CC50/MIC) MRSA 43300: CC50 Vero cells / MIC; for MIC: Staphylococcus aureus, read-out: MIC MRSA ATCC 43300
Experimental: (§1) Media and solutions were autoclaved or sterile filtered prior to use and mani pulations were carri ed out in a laminar flow hood. Antibacterial t esting was performed in polypropylene 96-well flat bottom plates. The minimal inhibitory concentration of blasticidin S (1) hydrochloride, methyl ester (3) trihydrochloride, P10 (2) tri-T FA , phenet hyl amide (4) tri -T FA , an d blastimidines M 19– 22, A, 29–32, P 37–40, and C 43–46 (salt forms as described in the te xt) were assessed against Staphylococcus aureus ΔNorA, S. aureus ATCC 6538P, methicillin-resistant S. aureus (MRSA) ATCC 43300, Enterococcus faecalis ATCC 29212, vancomycin- resistant Enterococcus, Klebsiella pneumoniae ATCC 29665, Pseudomonas aeruginosa,and Acinetobacter baumannii ATCC 17978 using serial dilutions. Doxycycline (Gold Bio) as a positive control and the vehicle as a negative control. Stock solutions of each compound were prepared at 2.56 mg/mL in 50% DMSO/water and serially diluted in 50% DMSO/water to create master plates. From the master plates, 10 μ L o f each dilution was applied to test plates using a Bravo automated liquid transfer system (Agilent).
(§2) Bacteria previously grown overnight (37 °C, 120–200 RPM), in LB broth were diluted to an OD600 of 0.05 in cation-adjusted Mueller-Hinton broth (CAMHB), grown to an OD600 of ~0.5, and diluted to an OD600 of 0.004 in CAMHB . These diluted cultures were applied to the test plates (190 μL per test well) resulting in final concentrations of the test compounds of 128–1 μg/ m L.
(§3) Growth controls (wells with inoculated media but no vehicle or test compounds) were included to assess any potential toxicity from the vehicle. Th e plates were in cubated at 37 °C for 16–18 h, except fo r VRE and E. faecalis, which w ere in cub ated at 37 °C fo r 24 h. Inh ibition was determined by measuring the optical density at 600 nm (OD60 0) with a Cytation 3 pl ate read er (BioTek). The optical density measurem ents were no rmalized to the positive and negative controls and the vehicle and growth controls were compared and found to b e indistinguishable, indicating no toxicity from […]
(§4) the vehicle used. The MIC was the lowest concentration that inhibited >90% of growth. Two biological replicates were performed in duplicate. MIC values are reported as a range from […]

[2] = tested on: S. aureus ATCC 6538P; experiment: Antibacterial MIC assay, serial dilution; assay type: cell-based, Staphylococcus aureus; settings: for Selectivity index (CC50/MIC) S. aureus 6538P: CC50 Vero cells / MIC; for MIC: Staphylococcus aureus, ATCC 6538P / ATCC 6539P, read-out: MIC S. aureus ATCC 6539P
Experimental: as §1, §2, §3, §4

[3] = tested on: S. aureus ΔNorA; experiment: Antibacterial MIC assay, serial dilution; assay type: cell-based, Staphylococcus aureus; settings: for Selectivity index (CC50/MIC) S. aureus ΔNorA: CC50 Vero cells / MIC; for MIC: Staphylococcus aureus, read-out: MIC S. aureus ∆NorA
Experimental: as §1, §2, §3, §4

[4] = tested on: Escherichia coli BAA-2452; experiment: Antibacterial MIC assay, serial dilution; assay type: cell-based; settings: BAA2452, read-out: MIC Escherichia coli BAA-2452
[5] = tested on: Vancomycin resistant E. faecalis NR-31972 (VRE); experiment: Antibacterial MIC assay, serial dilution; assay type: cell-based, Enterococcus faecalis; settings: for Selectivity index (CC50/MIC) VRE NR-31972: CC50 Vero cells / MIC; for MIC: Enterococcus faecalis, VRE, 24 h, read-out: MIC Vancomycin resistant E. faecalis NR-31972 (VRE)
Experimental: as §1, §2, §3, §4

[6] = tested on: Acinetobacter baumannii ATCC 17978; experiment: Antibacterial MIC assay, serial dilution; assay type: cell-based; settings: ATCC17978, range from biological replicates
Experimental: as §1, §2, §3, §4

[7] = tested on: Enterococcus faecalis ATCC 29212; experiment: Antibacterial MIC assay, serial dilution; assay type: cell-based; settings: for Selectivity index (CC50/MIC) E. faecalis 29212: CC50 Vero cells / MIC; for MIC: Enterococcus faecalis, ATCC 29112 / ATCC 29212, 24 h, read-out: MIC E. faecalis ATCC 29112
Experimental: as §1, §2, §3, §4

[8] = tested on: Pseudomonas aeruginosa; experiment: Antibacterial MIC assay, serial dilution; assay type: cell-based; settings: for Selectivity index (CC50/MIC) P. aeruginosa: CC50 Vero cells / MIC; for MIC: Pseudomonas aeruginosa, range from biological replicates, read-out: MIC P. aeruginosa
Experimental: as §1, §2, §3, §4

[9] = tested on: Klebsiella pneumoniae ATCC 29665; experiment: Antibacterial MIC assay, serial dilution; assay type: cell-based; settings: for Selectivity index (CC50/MIC) K. pneumoniae: CC50 Vero cells / MIC; for MIC: Klebsiella pneumoniae, ATCC29665, range from biological replicates, read-out: MIC K. pneumoniae ATCC-29665
Experimental: as §1, §2, §3, §4

[10] = tested on: Vancomycin resistant Enterococcus faecium NR-31909 (VRE); experiment: Antibacterial MIC assay, serial dilution; assay type: cell-based; settings: for Selectivity index (CC50/MIC) VRE NR-31909: CC50 Vero cells / MIC; for MIC: Enterococcus faecium, VRE, 24 h, read-out: MIC Vancomycin resistant Enterococcus faecium NR-31909 (VRE)
Experimental: as §1, §2, §3, §4

[11] = Cytotoxicity assay (MTS/PMS); assay type: cell-based; settings: monkey, 24 h treatment, MTS/PMS, average of three biological replicates, read-out: CC50 against Vero cells
Experimental: The potential cytotoxic eff ect of the test compounds was investigated using Vero cells (monkey kidney epitheli al cells) following est ablished protocols.3 Briefly, Vero cells were plated into 96-well plates supplemented with Dulbecco's Modified Eagle Medium (DMEM) containing 10% fetal bovine serum (FBS). The cells were placed in a humidified 37 °C environment for incubation with 5% CO₂ for 24 h to allow proper adherence and growth. Following the incubation period, the culture medium was replaced with fresh DMEM containing serial dilutions of the test compounds, while the v ehicle alon e w as used as a negative control. The treated cells were incubated for an additional 24 h. To assess cell viability, the MTS/PMS reagent was added to each well and incubat ed for 4 h. A microplate reader (S ynergy H1, BioTek, USA) was used to m easure absorbance at 490 nm. Al l experiments wer e cond ucted usingthree biologi cal replicates .
Ta b l e S2. CC50 valuesa (µg/mL) against Vero cells […]
aValues at which the cell viability (normalized to vehicle control) was 50%. […]

[12] = tested on: Methicillin resistant Staphylococcus epidermidis (MRSE) ATCC 35984 NRS101; experiment: Antibacterial MIC assay, serial dilution; assay type: cell-based; settings: for Selectivity index (CC50/MIC) MRSE 35984: CC50 Vero cells / MIC; for MIC: Staphylococcus epidermidis, read-out: MIC Methicillin resistant Staphylococcus epidermidis (MRSE) ATCC 35984 NRS101
[13] = tested on: Methicillin resistant S. aureus (MRSA) USA300; experiment: Antibacterial MIC assay, serial dilution; assay type: cell-based, Staphylococcus aureus; settings: for Selectivity index (CC50/MIC) MRSA USA300: CC50 Vero cells / MIC; for MIC: Staphylococcus aureus, read-out: MIC Methicillin resistant S. aureus (MRSA) USA300
[14] = Vero cells (monkey kidney epithelial cells)

| Compound | Selectivity index (CC50/MIC) MRSA 43300 [1] | MIC [1] [µg/mL] | Selectivity index (CC50/MIC) S. aureus 6538P [2] | MIC [2] [µg/mL] | Selectivity index (CC50/MIC) S. aureus ΔNorA [3] | MIC [3] [µg/mL] | MIC [4] [µg/mL] | Selectivity index (CC50/MIC) VRE NR-31972 [5] | MIC [5] [µg/mL] | MIC [6] [µg/mL] | Selectivity index (CC50/MIC) E. faecalis 29212 [7] | MIC [7] [µg/mL] | Selectivity index (CC50/MIC) P. aeruginosa [8] | MIC [8] [µg/mL] | Selectivity index (CC50/MIC) K. pneumoniae [9] | MIC [9] [µg/mL] | Selectivity index (CC50/MIC) VRE NR-31909 [10] | MIC [10] [µg/mL] | Selectivity index (CC50/MIC) MRSE 35984 [12] | MIC [12] [µg/mL] | also measured |
| --- | --- | --- | --- | --- | --- | --- | --- | --- | --- | --- | --- | --- | --- | --- | --- | --- | --- | --- | --- | --- | --- |
| CN(CC[C@H](N)CC(=O)N[C@H]1C=C[C@H](n2ccc(NC(=O)c3ccc(N)cc3)nc2=O)O[C@@H]1C(=O)O)C(=N)N [Blastimidine C2] | <0.5 | > 128 | <0.5 | > 128 | <0.5 | > 128 | 64 (≈ 118 µM) | 0.5 | 128 (≈ 236 µM) | > 128 | 1.0 | 64 (≈ 118 µM) | <0.5 | > 128 | 1.0 | 64 (≈ 118 µM) | 1.0 | 64 (≈ 118 µM) | <0.5 | > 128 | CC50 at 24 h [11, 14]: 66 µg/mL (≈ 122 µM); Selectivity index (CC50/MIC) MRSA USA300 [13]: 0.5; MIC [13]: 128 µg/mL (≈ 236 µM) |
| CNc1ccc(C(=O)Nc2ccn([C@H]3C=C[C@H](NC(=O)C[C@@H](N)CCN(C)C(=N)N)[C@@H](C(=O)O)O3)c(=O)n2)cc1 [Blastimidine C3] | <1.1 | > 128 | <1.1 | > 128 | <1.1 | > 128 | > 128 | 1.1 | 128 (≈ 230 µM) | > 128 | 2.2 | 64 (≈ 115 µM) | <1.1 | > 128 | 1.7 | 64 to 128 (≈ 115 to 230 µM) | 2.2 | 64 (≈ 115 µM) | <1.1 | > 128 | CC50 at 24 h [11, 14]: 142 µg/mL (≈ 256 µM); Selectivity index (CC50/MIC) MRSA USA300 [13]: 1.1; MIC [13]: 128 µg/mL (≈ 230 µM) |
| CN(CC[C@H](N)CC(=O)N[C@H]1C=C[C@H](n2ccc(NC(=O)c3ccc(NC(=O)[C@@](C)(N)CO)cc3)nc2=O)O[C@@H]1C(=O)O)C(=N)N [Blastimidine C5] | <1.4 | > 128 | <1.4 | > 128 | <1.4 | > 128 | > 128 | <1.4 | > 128 | > 128 | <1.4 | > 128 | <1.4 | > 128 | <1.4 | > 128 | <1.4 | > 128 | <1.4 | > 128 | CC50 at 24 h [11, 14]: 177 µg/mL (≈ 275 µM); Selectivity index (CC50/MIC) MRSA USA300 [13]: <1.4; MIC [13]: > 128 µg/mL |
| COC(=O)[C@H]1O[C@@H](n2ccc(N)nc2=O)C=C[C@@H]1NC(=O)C[C@@H](N)CCN(C)C(=N)N [Blastimidine M1, blasticidin S methyl ester] | 1.3 | 16 to 32 (≈ 36.7 to 73.3 µM) | 1.3 | 16 to 32 (≈ 36.7 to 73.3 µM) | 0.3 | 64 to 128 (≈ 147 to 293 µM) | 8 (≈ 18.3 µM) | 0.9 | 32 (≈ 73.3 µM) | 128 (≈ 293 µM) | 1.8 | 16 (≈ 36.7 µM) | 0.4 | 64 (≈ 147 µM) | 0.4 | 64 (≈ 147 µM) | 0.4 | 64 (≈ 147 µM) | 1.8 | 16 (≈ 36.7 µM) | CC50 at 24 h [11, 14]: 28 µg/mL (≈ 64.2 µM); Selectivity index (CC50/MIC) MRSA USA300 [13]: 3.6; MIC [13]: 8 µg/mL (≈ 18.3 µM) |
| COC(=O)[C@H]1O[C@@H](n2ccc(NC(=O)c3ccc(N)cc3)nc2=O)C=C[C@@H]1NC(=O)C[C@@H](N)CCN(C)C(=N)N [Blastimidine M2] | 7.9 | 16 (≈ 28.8 µM) | 7.9 | 16 (≈ 28.8 µM) | 5.9 | 16 to 32 (≈ 28.8 to 57.6 µM) | 32 (≈ 57.6 µM) | 4.0 | 32 (≈ 57.6 µM) | > 128 | 16 | 8 (≈ 14.4 µM) | <1.0 | > 128 | 2.0 | 64 (≈ 115 µM) | 1.0 | 128 (≈ 230 µM) | 7.9 | 16 (≈ 28.8 µM) | CC50 at 24 h [11]: 126 µg/mL (≈ 227 µM); Selectivity index (CC50/MIC) MRSA USA300 [13]: 16; MIC [13]: 8 µg/mL (≈ 14.4 µM) |
| COC(=O)[C@H]1O[C@@H](n2ccc(NC(=O)c3ccc(NC(C)=O)cc3)nc2=O)C=C[C@@H]1NC(=O)C[C@@H](N)CCN(C)C(=N)N [Blastimidine M4] | 6.6 | 32 (≈ 53.5 µM) | 9.9 | 16 to 32 (≈ 26.8 to 53.5 µM) | 6.6 | 32 (≈ 53.5 µM) | 64 (≈ 107 µM) | 3.3 | 64 (≈ 107 µM) | > 128 | 6.6 | 32 (≈ 53.5 µM) | <1.6 | > 128 | 6.6 | 32 (≈ 53.5 µM) | 1.6 | 128 (≈ 214 µM) | 3.3 | 64 (≈ 107 µM) | CC50 at 24 h [11, 14]: 210 µg/mL (≈ 351 µM); Selectivity index (CC50/MIC) MRSA USA300 [13]: 3.3; MIC [13]: 64 µg/mL (≈ 107 µM) |
